Where two headings read alike, the source gives them in different places.
Experiments:
[1] = target: T1, Mammalian DNA-PK, isolated from Hela cell nuclear extract (Homo sapiens, UniProt P78527); experiment: DNA-PK inhibition assay (33P-ATP, filter binding); type: biochemical
T1 construct: Mammalian DNA-PK, isolated from Hela cell nuclear extract; endogenous in cells; host or cells: HeLa cell nuclear extract (purified per Gell and Jackson 1999)
Protocol: In order to assess the inhibitory action of the compounds against DNA-PK in vitro, the following assay was used to determine IC50 values.
The total assay volume per well was 40 μl.
After 10 minutes of incubation at 30° C. the reactions were initiated by the addition of Na-ATP (50 μM final), ^33p-γATP and a 30mer double stranded DNA oligonucleotide (10 ng/μl) in a volume of 10 μl. Designated positive and negative reaction wells were done in combination with compound wells (unknowns) in order to calculate % enzyme activities. The plates were then shaken for 2 minutes and incubated at 30° C. for 45 minutes.
Following the incubation, the reactions were quenched by the addition of 50 μl 30% acetic acid to each well. The plates were then shaken for 5 minutes and the contents of each plate (80 μl from each well) transferred over to a 96 well Polyfiltronics filtration plate, containing P81-phosphocellulose membrane (TRADE MARK)(Whatman, UK). The solutions were vacuum pumped through the membrane and each well membrane washed four times using 300 μl of 15% acetic acid. The well membranes were then air dried and 20 μl of scintillant was added to each well.
The plates were transferred to a TopCount NXT (TRADE MARK) (Packard, UK) for scintillation counting. Values recorded are counts per minute (cpm) following a 1 minute counting time for each well.
The enzyme activity for each compound is then calculated using the following equation: […]
These are determined over a range of different concentrations, normally from 10 μM down to 0.01 μM. Such IC50 values are used as comparative values to identify increased compound potencies.

ATM protein [2] = target: T2, ATM protein (Homo sapiens, UniProt Q13315); experiment: ATM inhibition assay (immunoprecipitated ATM, GSTp53N66 substrate); type: biochemical
T2 construct: ATM protein was immunoprecipitated from HeLa cell nuclear extract; endogenous in cells; host or cells: HeLa cell nuclear extract (immunoprecipitate)
T2 sequence (Q13315 whole entry): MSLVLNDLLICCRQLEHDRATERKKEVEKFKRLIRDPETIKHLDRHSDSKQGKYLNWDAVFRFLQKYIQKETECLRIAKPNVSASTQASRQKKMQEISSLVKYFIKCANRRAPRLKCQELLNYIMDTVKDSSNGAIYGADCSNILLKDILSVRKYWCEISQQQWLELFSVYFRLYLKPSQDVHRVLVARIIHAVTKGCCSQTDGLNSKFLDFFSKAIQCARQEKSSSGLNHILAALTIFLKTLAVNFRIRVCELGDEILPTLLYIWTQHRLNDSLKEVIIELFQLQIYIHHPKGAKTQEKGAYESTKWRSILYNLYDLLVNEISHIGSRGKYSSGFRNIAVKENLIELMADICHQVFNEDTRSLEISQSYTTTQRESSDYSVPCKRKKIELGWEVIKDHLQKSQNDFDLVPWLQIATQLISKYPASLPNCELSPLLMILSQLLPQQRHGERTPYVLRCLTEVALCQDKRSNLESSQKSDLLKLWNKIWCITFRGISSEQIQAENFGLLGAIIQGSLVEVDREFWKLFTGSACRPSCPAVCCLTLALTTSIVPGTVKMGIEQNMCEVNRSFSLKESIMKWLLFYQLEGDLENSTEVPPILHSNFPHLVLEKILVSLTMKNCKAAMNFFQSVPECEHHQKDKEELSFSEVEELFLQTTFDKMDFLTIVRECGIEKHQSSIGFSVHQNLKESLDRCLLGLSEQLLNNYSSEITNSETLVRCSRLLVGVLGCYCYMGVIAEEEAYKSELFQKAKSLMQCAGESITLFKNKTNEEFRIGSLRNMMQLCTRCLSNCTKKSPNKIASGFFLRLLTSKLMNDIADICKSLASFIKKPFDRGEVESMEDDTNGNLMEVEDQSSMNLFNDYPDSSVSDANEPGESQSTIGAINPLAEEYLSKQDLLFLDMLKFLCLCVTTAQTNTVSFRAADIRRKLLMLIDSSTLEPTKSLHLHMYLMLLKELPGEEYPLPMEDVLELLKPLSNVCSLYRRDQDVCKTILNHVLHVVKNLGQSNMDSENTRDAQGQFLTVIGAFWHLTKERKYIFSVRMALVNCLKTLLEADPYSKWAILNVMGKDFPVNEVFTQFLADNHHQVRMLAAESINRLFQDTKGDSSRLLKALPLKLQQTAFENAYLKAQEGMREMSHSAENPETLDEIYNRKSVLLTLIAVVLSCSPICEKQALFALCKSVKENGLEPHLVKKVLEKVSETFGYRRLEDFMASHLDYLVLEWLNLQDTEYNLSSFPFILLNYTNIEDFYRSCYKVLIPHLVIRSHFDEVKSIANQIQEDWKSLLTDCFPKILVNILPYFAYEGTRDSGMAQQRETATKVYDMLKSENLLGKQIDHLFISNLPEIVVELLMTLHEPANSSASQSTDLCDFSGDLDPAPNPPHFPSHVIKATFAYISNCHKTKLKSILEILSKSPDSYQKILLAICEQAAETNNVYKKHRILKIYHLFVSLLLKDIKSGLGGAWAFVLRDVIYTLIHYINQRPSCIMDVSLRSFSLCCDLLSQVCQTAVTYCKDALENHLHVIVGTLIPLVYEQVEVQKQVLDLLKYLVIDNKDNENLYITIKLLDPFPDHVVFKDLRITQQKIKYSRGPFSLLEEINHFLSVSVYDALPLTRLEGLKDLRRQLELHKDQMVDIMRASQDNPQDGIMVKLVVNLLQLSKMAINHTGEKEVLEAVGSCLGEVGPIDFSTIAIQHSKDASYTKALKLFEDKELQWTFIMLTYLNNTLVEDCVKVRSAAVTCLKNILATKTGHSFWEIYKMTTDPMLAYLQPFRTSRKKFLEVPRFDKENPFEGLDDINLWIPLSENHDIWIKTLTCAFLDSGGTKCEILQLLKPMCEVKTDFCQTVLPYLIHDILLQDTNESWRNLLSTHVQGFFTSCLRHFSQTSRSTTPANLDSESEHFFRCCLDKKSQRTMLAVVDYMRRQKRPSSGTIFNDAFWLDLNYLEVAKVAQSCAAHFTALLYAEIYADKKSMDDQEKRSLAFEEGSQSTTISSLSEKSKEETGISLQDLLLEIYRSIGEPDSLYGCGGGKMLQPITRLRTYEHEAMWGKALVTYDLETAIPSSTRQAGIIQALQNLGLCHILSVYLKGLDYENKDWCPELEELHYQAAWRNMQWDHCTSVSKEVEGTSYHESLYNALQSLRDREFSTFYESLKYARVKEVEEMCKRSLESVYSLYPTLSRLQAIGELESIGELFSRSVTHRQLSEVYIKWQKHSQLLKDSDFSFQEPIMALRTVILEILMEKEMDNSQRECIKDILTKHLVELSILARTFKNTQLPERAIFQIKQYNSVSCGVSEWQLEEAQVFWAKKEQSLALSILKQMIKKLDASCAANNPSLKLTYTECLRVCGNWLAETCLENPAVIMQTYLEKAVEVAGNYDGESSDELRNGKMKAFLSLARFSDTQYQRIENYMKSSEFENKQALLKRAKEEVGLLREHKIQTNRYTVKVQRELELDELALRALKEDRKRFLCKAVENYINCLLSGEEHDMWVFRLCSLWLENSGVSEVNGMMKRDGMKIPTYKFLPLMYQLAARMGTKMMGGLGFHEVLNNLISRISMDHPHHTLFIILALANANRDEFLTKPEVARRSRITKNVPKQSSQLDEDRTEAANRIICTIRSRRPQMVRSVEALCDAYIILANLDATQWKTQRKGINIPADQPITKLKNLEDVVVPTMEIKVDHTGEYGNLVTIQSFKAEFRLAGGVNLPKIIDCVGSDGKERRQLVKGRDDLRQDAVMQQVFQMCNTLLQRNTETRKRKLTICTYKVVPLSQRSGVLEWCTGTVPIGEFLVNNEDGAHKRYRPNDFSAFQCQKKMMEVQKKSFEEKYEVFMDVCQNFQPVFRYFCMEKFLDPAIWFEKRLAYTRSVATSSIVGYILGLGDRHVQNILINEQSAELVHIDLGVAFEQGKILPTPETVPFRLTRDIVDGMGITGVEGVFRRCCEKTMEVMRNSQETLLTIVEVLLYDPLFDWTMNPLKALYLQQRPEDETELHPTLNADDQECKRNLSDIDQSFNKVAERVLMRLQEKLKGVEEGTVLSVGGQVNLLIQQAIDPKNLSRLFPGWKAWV
Protocol: (§1) In order to assess the inhibitory action of the compounds against ATM in vitro, the following assay was used to determine IC50 values.
(§2) ATM protein was immunoprecipitated from HeLa cell nuclear extract using rabbit polyclonal antisera raised to the C-terminal ˜500 amino-acid residues of the human ATM protein. The immunoprecipitation was performed according to the methodology described by Banin, S. et al. (1998) Enhanced phosphorylation of p53 by ATM in response to DNA damage. Science 281:1674-1677. 10 μl of immunoprecipitated ATM in Buffer C (50 mM Hepes, pH 7.4, 6 mM MgCl2, 150 mM NaCl, 0.1 mM sodium orthovanadate, 4 mM MnCl2, 0.1 mM dithiothreitol, 10% glycerol) was added to 32.5 μl of buffer C containing 1 μg of the ATM substrate GSTp53N66 in a V-bottomed 96 well polypropylene plate. The GSTp53N66 substrate is the amino terminal 66 amino acid residues of human wild type p53 fused to glutathione S-transferase. ATM phosphorylates p53 on the residue serine 15 (Banin, S. et al. (1998) Enhanced phosphorylation of p53 by ATM in response to DNA damage. Science 281:1674-1677). Varying concentrations of inhibitor were then added. […] After 10 minutes of incubation at 37° C., the reactions were initiated by the addition of 5 μl of 50 μM Na-ATP. After 1 h with shaking at 37° C., 150 μl of phosphate buffered saline (PBS) was added to the reaction and the plate centrifuged at 1500 rpm for 10 minutes. 5 μl of the reaction was then transferred to a 96 well opaque white plate containing 45 μl of PBS to allow the GSTp53N66 substrate to bind to the plate wells. The plate was covered and incubated at room temperature for 1 h with shaking before discarding the contents. The plate wells were washed twice by the addition of PBS prior to the addition of 3% (w/v) bovine serum albumin (BSA) in PBS. The plate was incubated at room temperature for 1 h with shaking before discarding the contents and washing twice with PBS. To the wells, 50 μl of a 1:10,000 dilution of primary phosphoserine-15 antibody (Cell Signaling Technology, #9284L) in 3% BSA/PBS was added to detect the phosphorylation event on the serine 15 residue of p53 elicited by the ATM kinase. After 1 h of incubation at room temperature with shaking, the wells were washed four times with PBS prior to the addition of an anti-rabbit HRP conjugated secondary antibody (Pierce, 31462) with shaking for 1 h at room temperature. The wells were then washed four times with PBS before the addition of chemiluminescence reagent (NEN Renaissance, NEL105). The plate was then shaken briefly, covered with a transparent plate seal and transferred to a TopCount NXT for chemiluminescent counting. Counts per second, following a one second counting time, were recorded for each reaction. The inhibition of ATM activity by compounds was calculated as described above for the DNA-PK assay.
(§3) The selectivity was determined by the following equation: […]

ATM protein [3] = experiment: as above; type: biochemical, human; conditions: selectivity ratio from the IC50s for ATM and DNA-PK
Protocol: as §1, §2, §3

PI 3-kinase (p110α/p85α) = experiment: PI 3-kinase inhibition assay; type: biochemical; conditions: selectivity ratio from the IC50s for PI 3-kinase and DNA-PK
Text: In order to assess the inhibitory action of the compounds against PI 3-kinase in vitro, the following assay was used to determine IC50 values.
Baculoviral recombinant GST-fused PI 3-kinase (p110α/p85α) was purified from Sf9 insect cells using GSH-sepharose affinity chromatography as described (Wymann, M. T et al., (1996) Wortmannin inactivates phosphoinositide 3-kinase by covalent modification of Lys-802, a residue involved in the phosphate transfer reaction. Mol. Cell Biol. 16:1722-1733). PI 3-kinase (1 μl) was diluted in reaction buffer (89 μl of 50 mM Hepes pH 7.5, 150 mM NaCl, 0.1 mM Sodium Orthovanadate, containing 20 μg of phosphatidylinositol) and varying concentrations of inhibitor compound added. […] Reactions were incubated for a further 20 minutes at 37° C., before quenching with the addition of 400 μl of chloroform/methanol (1:1). Reactions were acidified by the addition of 200 μl of 1M HCl, before separation of the organic and aqueous phases by centrifugation at 10,000 g for 30 seconds. The organic phase was transferred to a fresh tube and washed twice with 150 μl of 1M hydrochloric acid/methanol (1:1), discarding the aqueous phase. The washed reaction product was then placed in a white 96-well plate with 100 μl of scintillation fluid and transferred to a TopCount NXT for scintillation counting. Counts per minute, following a one minute counting time, were recorded for each reaction. The inhibition of PI 3-kinase activity by compounds was calculated as described above for the DNA-PK assay.
as §3

[4] = IC50 of less than about 1 μM and/or % inhibition of more than about 50 at 1 μM, read-out: DNA-PK inhibition IC50 (particular efficacy)
[5] = concentration at which 50% of the enzyme activity is inhibited, read-out: DNA-PK Inhibition IC50

melting point [°C]	IC50 (ATM protein [2]) [µM]	SMILES	Δ(DNA-PK/ATM) (ATM protein [3])	further results
240 to 242	–	O=c1cc(N2CCSCC2)nc2c3ccccc3ccn12 [Compound 6, 2-Thiomorpholin-4-yl-pyrimido[2,1-a]isoquinolin-4-one]	–	IC50 [1, 4]: < 1 µM; IC50 [1, 5]: 5 µM
208 to 209	–	C[C@@H]1CN(c2cc(=O)n3ccc4ccccc4c3n2)C[C@H](C)O1 [Compound 13, 2-((2S,6R)-2,6-Dimethyl-morpholin-4-yl)-pyrimido[2,1-a]isoquinolin-4-one]	–	IC50 [1, 5]: 8 µM
–	> 100	O=c1cc(-c2ccc(Cl)cc2)oc(N2CCOCC2)c1 [Compound 284, 2-(4-chlorophenyl)-6-(morpholin-4-yl)-pyran-4-one]	>286	–
125 to 127	24	COc1ccccc1-c1cc(=O)cc(N2CCOCC2)o1 [Compound 286, 2-(2-methoxyphenyl)-6-(morpholin-4-yl)-pyran-4-one]	80	–
115 to 117	> 50	COc1cccc(-c2cc(=O)cc(N3CCOCC3)o2)c1 [Compound 287, 2-(3-methoxyphenyl)-6-(morpholin-4-yl)-pyran-4-one]	>125	–
137 to 138	–	O=c1cc(-c2ccccc2F)oc(N2CCOCC2)c1 [Compound 290, 6-(2-fluorophenyl)-2-(morpholin-4-yl)pyran-4-one]	–	–
169 to 170	> 50	O=c1cc(-c2cccc(F)c2)oc(N2CCOCC2)c1 [Compound 291, 6-(3-fluorophenyl)-2-(morpholin-4-yl)pyran-4-one]	>167	–
–	> 100	O=c1cc(N2CCOCC2)oc2c(-c3ccccc3)cccc12 [Compound 294, 8-Phenyl-2-(morpholin-4-yl)-chromen-4-one]	> 67	Δ(DNA-PK/PI 3-K) (PI 3-kinase (p110α/p85α)): 1
205 to 207	–	O=c1cc(N2CCCCC2)oc2c1ccc1ccccc12 [Compound 295, 2-piperidin-1-yl-benzo[h]chromen-4-one]	–	–
218 to 220	–	O=c1cc(N2CCOCC2)oc2ccc(-c3ccccc3)cc12 [Compound 298, 2-(Morpholin-4-yl)-6-phenylchromen-4-one]	–	–
148	–	Cc1cccc2c(=O)cc(N3CCOCC3)oc12 [Compound 302, 8-Methyl-2-morpholin-4-yl-chromen-4-one]	–	–
165	–	COc1cccc2c(=O)cc(N3CCOCC3)oc12 [Compound 303, 8-Methoxy-2-morpholin-4-yl-chromen-4-one]	–	–
177.8 to 178.9	–	O=c1cc(N2CCOCC2)oc2c(OS(=O)(=O)C(F)(F)F)cccc12 [Compound 305, Trifluoro-methanesulfonic acid 2-morpholin-4-yl-4-oxo-4H-chromen-8-yl ester]	–	–
143 to 145	–	O=c1cc(N2CCOCC2)oc2cc(OS(=O)(=O)C(F)(F)F)ccc12 [Compound 306, Trifluoro-methanesulfonic acid 2-morpholin-4-yl-4-oxo-4H-chromen-7-yl ester]	–	–
–	> 100	O=c1cc(N2CCOCC2)oc2cc(O)ccc12 [Compound 307, 7-hydroxy-2-(morpholin-4-yl)-chromen-4-one]	>111	IC50 [1, 5]: 0.9 µM
147 to 149	–	O=c1cc(N2CCOCC2)oc2ccc(Br)cc12 [Compound 308, 6-Bromo-2-morpholin-4-yl-chromen-4-one]	–	–
211 to 212.5	–	C[C@@H]1CN(c2cc(=O)c3ccc4ccccc4c3o2)C[C@H](C)O1 [Compound 309, 2-(2,6-cis-dimethyl-morpholin-4-yl)-benzo[h]chromen-4-one]	–	–
208 to 209	–	O=c1cc(N2CCNCC2)oc2c1ccc1ccccc12 [Compound 311, 2-piperazin-1-yl-benzo[h]chromen-4-one]	–	–
209 to 210	–	O=c1cc(N2CCCC(CO)C2)oc2c1ccc1ccccc12 (centres unmarked) [Compound 313, 2-(3-Hydroxymethyl-piperidin-1-yl)-benzo[h]chromen-4-one]	–	–
184 to 185	–	CN1CCN(c2cc(=O)c3ccc4ccccc4c3o2)CC1 [Compound 314, 2-(4-Methyl-piperazin-1-yl)-benzo[h]chromen-4-one]	–	–
139 to 140	–	O=c1cc(NCC2CCCO2)oc2c1ccc1ccccc12 (centres unmarked) [Compound 316, 2-[(Tetrahydrofuran-2-ylmethyl)-amino]-benzo[h]chromen-4-one]	–	–
167 to 168	–	O=c1cc(N2CCOCC2)oc2cc(OCc3ccccc3Cl)ccc12 [Compound 417, 7-(2-Chlorobenzyloxy)-2-morpholin-4-yl-chromen-4-one]	–	–
263 to 264	> 100	O=c1cc(N2CCOCC2)oc2cc(OCc3ccc4ccccc4c3)ccc12 [Compound 418, 7-(Naphthalen-2-ylmethoxy)-2-morpholin-4-yl-chromen-4-one]	>222	IC50 [1, 4]: < 1 µM; IC50 [1, 5]: 0.45 µM
187 to 188	–	O=c1cc(N2CCOCC2)oc2cc(OCC3CCCCC3)ccc12 [Compound 419, 7-Cyclohexylmethoxy-2-(morpholin-4-yl)-chromen-4-one]	–	IC50 [1, 5]: 1 µM
204 to 206	> 100	O=C(Oc1ccc2c(=O)cc(N3CCOCC3)oc2c1)c1ccccc1 [Compound 423, 7-Benzoyloxy-2-(morpholin-4-yl)-chromen-4-one]	>33	IC50 [1, 5]: 3 µM

From US7674823B2, “DNA-PK inhibitors” (Cancer Research Technology Limited, priority 2001, dated 2010)
